This series is described as follows: gradient 5% acetonitrile 3 min, to 50% in 2 min, to 85% in 15 min, held 3 min, 100 µL/min. Particulars: column: Zorbax Extend-C18 2.1 x 50 mm; eluents: water / acetonitrile, 0.1% formic acid. The method in brief: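 Values are retention times taken from adduct peaks that software picked and an analyst inspected. The pure standards were run as mixtures of ~100 molecules on HPLC linked to a quadrupole time-of-flight mass spectrometer, in positive and negative ionization mode. A Zorbax Extend-C18 column (2.1 × 50 mm, 1.8 μm) was used at 100 μL/min with water and acetonitrile, each including 0.1% formic acid.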
`COc1ccc2c(c1)C1(CCN(C(=O)c3ccc(C)c(F)c3)C1)C(=O)N2C` (centres undefined) displayed an RP-LC retention time of 610 s.

As for `CCc1nc2cc(-c3noc(-c4ccc(C)c(NC(C)=O)c4)n3)ccc2o1`, the RP-LC retention time stood at 895 s.

`O=C(NC1CCCCCC1)c1cc(C2CC2)[nH]n1` returned an RP-LC retention time of 792 s.

As to `CC(C)NC(=O)C1CCN(c2nc3ccc(-c4cncnc4)nc3s2)CC1`, the RP-LC retention time amounted to 703 s.

Molecule `CN1C(=O)Cc2cc(C(=O)N3CCN(c4ccc(Cl)cc4)CC3)ccc21` gave an RP-LC retention time of 813 s.

The molecule `COC(=O)c1cc(C)nc2c1c(=O)n(Cc1ccc(C)cc1)c(=O)n2Cc1ccco1` returned an RP-LC retention time of 1160 s.

For `CCN1CCN(c2ncc3c(n2)CCN(Cc2cccc(Br)c2)C3)CC1`, the RP-LC retention time was 550 s.

`CCn1c(=O)sc2cc(S(=O)(=O)N3CCC(C(=O)Nc4cc(C)ccc4OC)CC3)ccc21` showed an RP-LC retention time of 978 s.

For the molecule `Cc1nc(N2CCN(c3ccccn3)CC2)nc2c1C(=O)CC(c1ccc(Cl)cc1)C2` (centres undefined), the RP-LC retention time amounted to 823 s.

On to `CCNC(=O)c1ccc(N2CCc3ccccc32)s1`, for which the RP-LC retention time is 824 s.

For the molecule `CCCCOc1ccc(-c2cc3c4nnc(CCC(=O)NCc5cccc(OC)c5)n4ccn3n2)cc1`, the RP-LC retention time worked out at 946 s.

`CC(C)C(=O)NCc1csc(C2CCCN(C(=O)c3cc(F)ccc3F)C2)n1` (centres undefined) came in with an RP-LC retention time of 730 s.

In turn, `Cc1[nH]c(C(=O)N2CCC(CC(=O)NCc3ccc(F)cc3)CC2)c(C)c1C(=O)OC(C)C` showed an RP-LC retention time of 818 s.

In the case of `Cc1ccc(NC(=O)Cn2cnc3c(sc4nc(-c5ccccc5)ccc43)c2=O)c(F)c1`, the RP-LC retention time is 982 s.

In turn, `CCOC(=O)C1CCN(S(=O)(=O)c2cc3n(c2)CCCN(CC)C3=O)CC1` came in with an RP-LC retention time of 679 s.

The molecule `CCOC(=O)CNC(=O)NC(C(=O)N1CCc2ccccc21)c1ccccc1` (centres undefined) gave an RP-LC retention time of 832 s.

Molecule `CCc1noc(-c2ccc(SCC(=O)N3CCCCC3C)nc2)n1` (centres undefined) had an RP-LC retention time of 1200 s.

Consider `O=C(NCc1cccc(Br)c1)c1ccc2ncnc(N3CCCC3)c2c1`, for which the RP-LC retention time came to 679 s.

Turning to `Cc1cnc2n(c1=O)C(CC(=O)NCCc1ccc(S(N)(=O)=O)cc1)CS2` (centres undefined), the RP-LC retention time stood at 575 s.

Molecule `Cc1nccn1C1CN(C(=O)C2CCCCC2)C1` registered an RP-LC retention time of 572 s.

`Cc1ccc(NC(=O)Cn2nc3cc(-c4ccccc4)nc(C)n3c2=O)c(F)c1`: the RP-LC retention time was determined as 958 s.

Consider `CC(C)Cn1c(=O)c2ccccc2n(Cc2nc(-c3ccccc3Cl)no2)c1=O`, for which the RP-LC retention time was 1170 s.

For `COc1ccc2c(c1)C1(CCN(C(=O)NC(C)C)C1)C(=O)N2C` (centres undefined), the RP-LC retention time turned out to be 681 s.

Consider `Cc1cnc(C2CN(C(=O)C3(c4ccccc4)CC3)C2)n1Cc1cccnc1`, for which the RP-LC retention time came out at 585 s.

In turn, `NC(=O)[C@@H](CCC(F)(F)F)N(Cc1ccc(-c2ncon2)cc1F)S(=O)(=O)c1ccc(Cl)cc1` yielded an RP-LC retention time of 1030 s.

In turn, `CNc1nc(N2CCNC(=O)C2)nc2ccccc12` gave an RP-LC retention time of 564 s.

`CCN1CCCn2cc(S(=O)(=O)NC3CCN(Cc4ccccc4)CC3)cc2C1=O` displayed an RP-LC retention time of 597 s.

`O=C(Cn1cccc1-c1nc(-c2ccc3c(c2)OCO3)no1)Nc1ccc(F)c(Cl)c1` yielded an RP-LC retention time of 1030 s.

Take `COc1ccccc1-c1noc(C2CCCN2C(=O)Nc2ccccc2)n1` (centres undefined): the RP-LC retention time amounted to 848 s.

Take `Cc1ccc(-c2nc3n(CC(=O)N4CCOCC4)c4c(c(=O)n3n2)CCC4)cc1`: the RP-LC retention time was 699 s.

`Cc1ccc2c(c1)N(C(=O)CSc1ccc(N3CCCC(C(=O)NC4CC4)C3)nn1)CCO2` (centres undefined) returned an RP-LC retention time of 687 s.

`Clc1cccc(-c2nnc(Cc3nc(-c4ccc5c(c4)OCO5)no3)o2)c1`: the RP-LC retention time came to 1020 s.

In the case of `O=C(c1cn(-c2ccc(-c3nc(C4CC4)no3)cn2)cn1)N1CCCC1`, the RP-LC retention time was determined as 676 s.

In turn, `CCN(Cc1ccc(C)cc1)Cc1cc(=O)n2cc(Cl)ccc2n1` displayed an RP-LC retention time of 652 s.

Molecule `Cc1ccc(CN2CCN(CC(=O)N3CCN(c4ccccn4)CC3)C(=O)C2=O)cc1` gave an RP-LC retention time of 586 s.

Regarding `COc1ccc(-c2noc(C3CCCN3C(=O)Nc3ccc(OC)c(Cl)c3)n2)cc1` (centres undefined), the RP-LC retention time was determined as 974 s.

Regarding `CCn1nnc2c(N3CCN(S(=O)(=O)c4cccc(Cl)c4)CC3)ncnc21`, the RP-LC retention time amounted to 880 s.

Consider `COc1ccc(NC(=O)N2CCN(C3=CC4=NC(C)CN4C=N3)CC2)c(C)c1` (centres undefined), for which the RP-LC retention time is 649 s.

Regarding `NS(=O)(=O)c1ccc(NC(=O)CSc2nnc3ccc4ccccc4n23)cc1`, the RP-LC retention time was determined as 652 s.

With `CCCCN(C)C(=O)Cn1c(=O)c(S(=O)(=O)c2ccccc2)cc2ccccc21`, the RP-LC retention time was found to be 893 s.

As to `CC(NC(=O)C1CCCN(c2nccnc2Oc2ccccc2)C1)c1ccccc1` (centres undefined), the RP-LC retention time amounted to 986 s.

For `Cc1ccc(NC(=O)N2CCC(n3cnc4ccc(C)cc4c3=O)CC2)c(Cl)c1`, the RP-LC retention time is 865 s.

`CC1(C)CC(=O)c2cn(-c3ccc(F)cc3)c(=O)c(C(=O)N3CCOCC3)c2C1` registered an RP-LC retention time of 695 s.

On to `COc1ccc(-c2cn3c(CC(=O)Nc4ccc(Br)cc4F)csc3n2)cc1OC`, for which the RP-LC retention time stood at 821 s.

Consider `Cc1nc2ncnn2c(N2CCC(C)CC2)c1C`, for which the RP-LC retention time is 1020 s.

Molecule `O=C(O)c1ccccc1-c1c2ccc(=O)c(O)c-2oc2c(O)c(O)ccc12` had an RP-LC retention time of 702 s.

For the molecule `CC(C)(C)NS(=O)(=O)CCNC(=O)c1ccccc1`, the RP-LC retention time is 665 s.

For `CCC(=O)N1CCc2cc(C(=O)NC3CC3)ccc21`, the RP-LC retention time was determined as 650 s.

`Nc1nc(N)c2nc(-c3cccc(O)c3)cnc2n1` gave an RP-LC retention time of 599 s.

Regarding `O=C(NCCCN1CCOCC1)c1c(O)c2cccc3c2n(c1=O)CC3`, the RP-LC retention time was 845 s.

In the case of `Cc1nc(-c2cc(S(=O)(=O)N3CCCCC3)c(C)n2C)sc1C`, the RP-LC retention time was 1140 s.

In turn, `CCCN1CCN(C(=O)C2CCCN(c3nc4cccnc4s3)C2)CC1` (centres undefined) yielded an RP-LC retention time of 593 s.

The molecule `Cc1ccccc1-c1noc(CSc2nc3cc4c(cc3c(=O)n2CC2CCCO2)OCO4)n1` (centres undefined) displayed an RP-LC retention time of 1170 s.

`CC1Oc2ccccc2OC1C(=O)Nc1cccc(-c2cn3c(n2)SCC3)c1` (centres undefined): the RP-LC retention time stood at 656 s.

As to `O=C(N[C@H]1C[C@@H]2C[C@H]1N(C(=O)c1cccc(Cl)c1)C2)c1ccccc1`, the RP-LC retention time was determined as 748 s.

`Cc1cc(NC(=O)N2CCC(CN3CCCC(C)C3)CC2)ccc1Br` (centres undefined): the RP-LC retention time is 682 s.

In the case of `CC(NC(=O)Cn1c(C(F)(F)F)nc2cc3c(cc21)OCCO3)c1ccc2c(c1)OCCCO2` (centres undefined), the RP-LC retention time came to 855 s.

For `COc1ccc(OC)c(NC(=O)CN2CC=C(c3cnn(C)c3)CC2)c1`, the RP-LC retention time is 597 s.

`CCn1cc(-c2ccncc2)cc1C(=O)NCc1ccc2c(c1)OCO2`: the RP-LC retention time is 641 s.

Molecule `CCNc1cc(N2CCCC(CCC(=O)Nc3ccccc3)C2)ncn1` (centres undefined) returned an RP-LC retention time of 669 s.

The molecule `O=C(NCc1cccc(Cl)c1)c1ccc(CN2CCN(C3CCCC3)C(=O)C2=O)cc1` showed an RP-LC retention time of 785 s.

`Cc1nc2cc(-c3noc(CNC(=O)Cc4ccc(Cl)cc4)n3)ccc2o1` came in with an RP-LC retention time of 858 s.

In the case of `COc1cc(C)c(Cc2cnc(N)nc2N)cc1OC`, the RP-LC retention time is 623 s.

On to `O=C1N=C(N2CCN(Cc3ccc(F)cc3)CC2)S/C1=C\c1cccc(O)c1`, for which the RP-LC retention time was 585 s.

`CCOC(=O)c1ccccc1NC(=O)Cn1nc2ccc(-c3ccc(Cl)cc3)nn2c1=O` gave an RP-LC retention time of 989 s.

`Cc1ccc(CN2CCN(C3CCN(C(=O)Nc4cccc(C)c4)CC3)C(=O)C2=O)cc1` gave an RP-LC retention time of 740 s.

In the case of `Cc1nn2c(CNC(=O)c3ccoc3)c(-c3ccccc3)nc2s1`, the RP-LC retention time worked out at 742 s.

Molecule `Cc1ccc(CN2CCCn3nc(C(=O)NCc4ccc(C)o4)cc3C2=O)cc1` showed an RP-LC retention time of 875 s.

In the case of `CC(C)CC(=O)Nc1ccc(-n2cnc(C(=O)N3CCC4(CC3)OCCO4)c2)nc1`, the RP-LC retention time is 677 s.

`O=C(Nc1cccc(Cl)c1)N1CCC(n2cnnc2C2CC2)C1` (centres undefined) showed an RP-LC retention time of 658 s.

In the case of `C=CCN1C(=O)C(C(=O)N2CCOCC2)C2CC1(C)Oc1ccccc12` (centres undefined), the RP-LC retention time amounted to 718 s.

Molecule `CCn1cc(S(=O)(=O)CC(=O)Nc2ccc3c(c2)OCO3)c2ccccc21` showed an RP-LC retention time of 754 s.

On to `O=C(c1csc(-c2ccc(N3CCCCC3)nc2)n1)N1CCN(c2ccccn2)CC1`, for which the RP-LC retention time was 600 s.

For `COc1ccc(C2(C(=O)N3CC[C@@H]4CN(Cc5ccccc5)[C@@H]4C3)CC2)cc1`, the RP-LC retention time was determined as 652 s.

`Cn1nc2n(c1=O)CCN(C(=O)c1ccn[nH]1)CC2` gave an RP-LC retention time of 552 s.

The molecule `COc1cccc(OC)c1CN1CC[C@@H]2CN(S(C)(=O)=O)[C@@H]2C1` gave an RP-LC retention time of 594 s.

`CCc1nnc(-c2ccc(S(=O)(=O)N3CCN(C4CCCCC4)CC3)o2)o1` returned an RP-LC retention time of 637 s.

Turning to `CCOc1ccc(CNC(=O)C2CCCN(c3nn4c(=O)c5c(nc4s3)CCCC5)C2)cc1OC` (centres undefined), the RP-LC retention time came to 737 s.

Molecule `Fc1ccc(OCc2nnc3sc(CCCc4ccccc4)nn23)cc1` had an RP-LC retention time of 1030 s.

The record behind these values is the METLIN SMRT retention time set (Domingo-Almenara et al. 2019).
